The source of these data is paper PMC5295395, “Inhibition of PlexA1-mediated brain tumor growth and tumor-associated angiogenesis using a transmembrane domain targeting peptide” (Oncotarget, 2016).

For assay [1], the system named is HUVEC cells. Kind of assay: live-monitoring trans-well migration assay, HUVEC (X-Celligence). Type of assay: cell-based, human. The note with it: p = 0.0002. The source says: We observed PlexA1 positive blood vessels in the tissue array of GBM samples (Figure 5A). […] To address this possibility we first used a transgenic zebra-fish model tg(kdrl:eGFP) highlighting the endothelial cells. This allowed us to assess the angiogenic activities in vivo by analyzing formation of intersegmental vessels (ISVs) after morpholino-based knockdown of the target.
Figure 5 MTP-PlexA1 inhibits developmental and tumor-specific PlexA1 pro-angiogenic role (A) Microphotographs illustrating the expression of PlexA1 in vascular-like structures in human glioma tissues. (Scale bar: 40 μm). (B) Morpholino-based PlexA1 knockdown in Zebrafish tg(kdrl:eGFP) line. Representative images of control, Plexin-A1 mismatch and Pexin-A1 knockdown embryos (plxna1MO) are shown 28 hours post fertilization (28hpf). […] (E) Live-monitoring of VEGF-induced HUVEC cell migration assay using the XCelligence system (transwell assay). (F) Microphotographs illustrating the expression of PlexA1 in blood vessels of the chick chorioallontoic membrane (upper left picture). Microphotographs (middle and lower left pictures) and camera lucida drawing (middle and lower right pictures) showing representative fields of observation after 24 h incubation with VEGF (100 ng/ml, +vehicle) or VEGF + MTP-PlexA1 (10^−7 M). The number of VEGF-induced new blood vessels is shown in the graph.

Assay [2] concerns U118MG-Luc cells. Briefly: MTT proliferation assay, U118MG-Luc. The class given is cell-based, human. The note with it: 24 h culture.
In assay [3] the test system is GBM tumors grafted in brain of immunocompromised mice. Kind of assay: orthotopic GBM graft in mouse brain. The class given is in vivo, human cells in mouse. The note with it: i.p., 1 μg/kg every 3 days for 3 weeks, 1.5 µg/kg 3 times per week. The protocol: To address the biological consequences of MTP-PlexA1-mediated inhibition of PlexA1 we used the U118MG-Luc glioma cell line genetically engineered to express the luciferase reporter gene. […] Cells were then grafted subcutaneously and tumor growth was monitored every 5 days for a total period of 20 days. […] The quantitative analysis of the cumulated luminescent signal acquired all along the protocol confirmed the strong reduction of tumor development translating into a marked 75% reduction of the averaged luminescent signal at the end point (Figure 6C). […] However, responses were strong for 8 out of 10 mice with some responses close to 100%, all of them being at least Partial Response (PR) (Figure 6D). In order to clarify the mechanism by which MTP-PlexA1 is exerting tumor growth inhibition we collected tumors and analyzed them histologically.
Supplementary Figure S5: We performed an orthotropic grafting experiment to monitor the effect of MTP-PlexA1 on GBM tumors developing in their native microenvironment. All procedures using animals are submitted to the Animal Care and Use Committee of AL/54/61/02/13. Immunocompromised mice are anesthetized with isoflurane 3% (BAXTER), under 0.5 L O2, and received a subcutaneous injection of ketofen 1% 1.5 mL/Kg (MERIAL). The scalp is incised and 100 000 cells of the dissociated GBM biopsy were engrafted with a 2 µL Hamilton syringe (HARVARD APPARATUS; HAM-88400) mounted on a stereotaxic set up (HARVARD APPARATUS) to inject cells at the following coordinates from the bregma x: −2 mm; y: +1 mm; z: −3.5 mm at a speed of 0.66 µl/min, 5 minutes after the syringe introduction. […] Tumor volume is calculated by the addition of every partial volume: [V total = Σ partial volumes = Σ d1 × (S1 + S2)/2 + d2 x (S2 + S3)/2 + … + dn x […]]. […] The immunostaining procedure used to quantify proliferation and vascularization of the tumor is described in the method section.While not strongly impacting tumor volume (−14.5%, p = 0.54, Mann Whitney test) the intraperitoneal […]

In the case of “TLPAIVGIGGGGGLLLLVIVAVLIAYKRK [MTP-PlexA1, synthetic transmembrane peptide mimicking the TMD of PlexA1]”, the “change of VEGFA-induced HUVEC cell migration” value in assay [1] is −63%. The “proliferation of U118MG-Luc cells” value in assay [2] is on record as “reduced proliferation in a dose dependent manner”. The “change of tumor volume, orthotopic” value in assay [3] (n = 12, p = 0.54, Mann Whitney) was −14.5%. Also, the “change of PH3 positive cells, orthotopic” value in assay [3] (p = 0.0023) is −38.3%. Also, the “change of angiogenesis, orthotopic” value in assay [3] (p = 0.0378) is −14.3%.
